Experimental findings from patent US20230127046A1, “G9a INHIBITOR” (RIKEN, priority 2019, published 2023) are described below.

The target of this assay is T1, recombinant human G9a protein (Homo sapiens, UniProt Q96KQ7).
T1 construct: purchased BPS Bioscience Inc. #51001
T1 sequence (Q96KQ7 785-1210 limits assumed): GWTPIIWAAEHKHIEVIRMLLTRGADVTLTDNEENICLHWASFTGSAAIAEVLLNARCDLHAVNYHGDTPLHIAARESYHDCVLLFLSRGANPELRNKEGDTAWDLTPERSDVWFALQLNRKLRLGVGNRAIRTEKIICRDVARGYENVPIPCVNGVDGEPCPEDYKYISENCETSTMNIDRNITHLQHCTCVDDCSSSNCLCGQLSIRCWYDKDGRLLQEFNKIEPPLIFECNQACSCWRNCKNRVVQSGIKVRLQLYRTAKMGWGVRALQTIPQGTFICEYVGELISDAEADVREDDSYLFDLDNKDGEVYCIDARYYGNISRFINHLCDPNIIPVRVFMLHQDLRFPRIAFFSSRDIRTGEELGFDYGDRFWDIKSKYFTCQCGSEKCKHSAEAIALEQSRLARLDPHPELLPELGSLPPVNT
Put plainly: G9a inhibitory activity test (ALPHA). The format is biochemical. In short, it runs like this: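 Human G9a (0.05 to 0.1 nM) in Tris pH 9.0 buffer preincubated with compound 10 min, then biotinylated histone H3 (1-21) peptide and SAM mixed 1:1 from 500 nM and 150 μM solutions, 1 h at room temperature. H3K9me2 detected by AlphaLISA acceptor/streptavidin donor beads; IC50 from percent inhibition relative to no-compound and no-enzyme controls.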

[1] abbreviates: read-out: Inhibitory activity (G9a IC50).
Where [2] appears, read: biotinylated histone H3 peptide (1-21), SAM, read-out: Inhibitory activity (G9a IC50 value).

A word on the pIC50: it is the IC50 on a negative log10 scale, so that one unit is a factor of ten.

pIC50: −log10 of the molar value. Like-named read-outs stand apart in the source and are kept apart here.

With `Cc1c(C(=O)N[C@H](CCC2CC2)C(=O)N(C)[C@@H](C)c2ccccc2)[nH]c2c1C(=O)CC(C)(C)C2` [Example 13-6], the pIC50 under setting [1] was at most 6.70. As to `CCCCC(NC(=O)c1[nH]c2c(c1C)C(=O)CC(C)(C)C2)C(=O)Nc1ccccc1C(C)C` (stereo not drawn) [Example 1-12], the pIC50 under setting [2] was at most 6.70. For `CCCCC(NC(=O)c1[nH]c2c(c1C)C(=O)CC(C)(C)C2)C(=O)Nc1cccc2c1CCN(C)C2` (stereo not drawn) [Example 1-55], the pIC50 under setting [2] is at most 6.70. `CCCCC(NC(=O)c1[nH]c2c(c1C)C(=O)CC(C)(C)C2)C(=O)Nc1ccc2c(c1)CNCC2` (stereo not drawn) [Example 25-3]: the pIC50 under setting [1] was 6.70 to 7.30. With `Cc1c(C(=O)NC(CCC2CC2)C(=O)N2CCc3ccc(CN4CCCCC4)cc32)[nH]c2c1C(=O)CC(C)(C)C2` (stereo not drawn) [Example 1-146], under setting [1], the pIC50 was at most 6.70.

For `CCCCC(NC(=O)c1[nH]c2c(c1C)C(=O)CC(C)(C)C2)C(=O)NCc1ccc(OCCN(C)C)cc1` (stereo not drawn) [Example 1-18], the pIC50 under setting [2] was 6.70 to 7.30. `CC(C)c1c(C(=O)N[C@@H](CCC2CC2)C(=O)Nc2ccc(C#N)cc2)[nH]c2c1C(=O)CC(C)(C)C2` [Example 15-4]: under setting [1], the pIC50 is 6.70 to 7.30. With `CSCC[C@H](NC(=O)c1[nH]c2c(c1C)C(=O)CC(C)(C)C2)C(=O)Nc1ccccc1` [Example 6-90], the pIC50 under setting [1] is at most 6.70. As for `CCCC[C@H](NC(=O)c1[nH]c2c(c1CC)C(=O)CC(C)(C)C2)C(=O)N[C@@H](CC)c1ccccc1` [Example 6-39], under setting [1], the pIC50 is 6.70 to 7.30.

As for `CCCCC(NC(=O)c1[nH]c2c(c1C)C(=O)CC(C)(C)C2)C(=O)Nc1ccc(N2CCN(C)CC2)cc1` (stereo not drawn) [Example 1-103], the pIC50 under setting [2] was at most 6.70. As to `CCCCC(NC(=O)c1[nH]c2c(c1C)C(=O)CC(C)(C)C2)C(=O)NCc1cccc(Cl)c1` (stereo not drawn) [Example 1-42], the pIC50 under setting [2] is at most 6.70. With `Cc1c(C(=O)NC(CCC2CC2)C(=O)Nc2ccc(SC(F)F)cc2)[nH]c2c1C(=O)CC(C)(C)C2` (stereo not drawn) [Example 1-65], under setting [2], the pIC50 was at most 6.70.

For the compound `CCc1cc(C)ncc1NC(=O)C(CCC1CC1)NC(=O)c1[nH]c2c(c1C)C(=O)CC(C)(C)C2` (stereo not drawn) [Example 6-1, N-[4-cyclopropyl-1-[(4-ethyl-6-methylpyridin-3-yl)amino]-1-oxobutan-2-yl]-3,6,6-trimethyl-4-oxo-5,7-dihydro-1H-indole-2-carboxamide], the pIC50 under setting [1] was above 7.30.

As to `CCCCC(NC(=O)Cc1ccccc1N)C(=O)Nc1ccc(OC2CCN(C)CC2)nc1` (stereo not drawn) [Example 29], the pIC50 under setting [1] was at most 6.70. `CCCCC(NC(=O)c1[nH]c2c(c1C)C(=O)CC(C)(C)C2)C(=O)N[C@H](CO)c1ccccc1` (stereo partly drawn) [Example 3-2]: under setting [1], the pIC50 was at most 6.70.

As to `CCCCC(NC(=O)c1[nH]c2c(c1C)C(=O)CC(C)(C)C2)C(=O)Nc1ccc2[nH]ncc2c1` (stereo not drawn) [Example 1-91], the pIC50 under setting [2] is at most 6.70. As to `CCCCC(NC(=O)c1[nH]c2c(c1C)C(=O)CC(C)(C)C2)C(=O)NCc1ccc2ccccc2c1` (stereo not drawn) [Example 1-50], the pIC50 under setting [2] is at most 6.70. As for `CCCCC(NC(=O)CC1CCCCC1)C(=O)Nc1ccc(OC2CCN(C)CC2)nc1` (stereo not drawn) [Example 11-2], the pIC50 under setting [1] is at most 6.70.

In the case of `COc1ccc(NC(=O)C(CCC2CC2)NC(=O)c2ccc(OCCCN(C)C)cc2)cn1` (stereo not drawn) [Example 6-72], under setting [1], the pIC50 was at most 6.70.

Take `CCCCC(NC(=O)c1[nH]c2c(c1C)C(=O)CC(C)(C)C2)C(=O)Nc1cccc(C)c1OC` (stereo not drawn) [Example 1-28]: the pIC50 under setting [2] is at most 6.70. `CCCCC(NC(=O)c1[nH]c2c(c1C)C(=O)CC(C)(C)C2)C(=O)Nc1cccc(CN2CCOCC2)c1` (stereo not drawn) [Example 1-99]: the pIC50 under setting [2] was at most 6.70. `Cc1c(C(=O)NC(CCC2CC2)C(=O)N2CCc3cc(OCCN(C)C)ccc32)[nH]c2c1C(=O)CC(C)(C)C2` (stereo not drawn) [Example 1-134]: the pIC50 under setting [1] is 6.70 to 7.30. For `CCCCC(NC(=O)c1[nH]c2c(c1C)C(=O)CC(C)(C)C2)C(=O)Nc1ccc(OC2CN(C)C2)nc1` (stereo not drawn) [Example 1-3], the pIC50 under setting [2] was 6.70 to 7.30.

With `CCCCC(NC(=O)c1[nH]c2c(c1C)C(=O)CC(C)(C)C2)C(=O)Nc1cccc2c1OCC2` (stereo not drawn) [Example 1-35], the pIC50 under setting [2] was at most 6.70.

Consider `CCCCC(NC(=O)c1[nH]c2c(c1C)C(=O)CC(C)(C)C2)C(=O)Nc1ccc2c(c1)CCN(C)C2` (stereo not drawn) [Example 5-2], for which the pIC50 under setting [1] was at most 6.70. For the compound `CCCCC(NC(=O)c1cc(S(N)(=O)=O)ccc1OC)C(=O)Nc1ccc(OC2CCN(C)CC2)nc1` (stereo not drawn) [Example 6-96], the pIC50 under setting [1] is at most 6.70. With `COc1ccc(NC(=O)C(CCC2CC2)NC(=O)c2ccc(CCN(C)C)cc2)cn1` (stereo not drawn) [Example 6-73], the negative logarithm of the IC50 (pIC50) under setting [1] was at most 6.70. As to `COc1ccc(NC(=O)C(CCC2CC2)NC(=O)c2ccc(C3=CCN(C)CC3)cc2)cn1` (stereo not drawn) [Example 6-68], the pIC50 under setting [1] was at most 6.70. As to `Cc1ccncc1NC(=O)C(CCC1CC1)NC(=O)c1[nH]c2c(c1C)C(=O)CC(C)(C)C2` (stereo not drawn) [Example 6-4], the pIC50 under setting [1] was 6.70 to 7.30. Regarding `CCCCC(NC(=O)c1[nH]c2c(c1C)C(=O)CC(C)(C)C2)C(=O)Nc1c(C)cccc1OC` (stereo not drawn) [Example 1-36], under setting [2], the pIC50 was at most 6.70. Regarding `CCCCC(NC(=O)c1[nH]c2c(c1C)C(=O)CC(C)(C)C2)C(=O)Nc1ccccc1SC` (stereo not drawn) [Example 1-2], under setting [2], the pIC50 was 6.70 to 7.30. For `CCCCC(NC(=O)c1[nH]c2c(c1C)C(=O)CC(C)(C)C2)C(=O)NCc1ccc(CN2CCOCC2)cc1` (stereo not drawn) [Example 18-5], the negative-log IC50 (pIC50) under setting [1] is at most 6.70. On to `CCCCC(NC(=O)c1[nH]c2c(c1C)C(=O)CC(C)(C)C2)C(=O)Nc1cccc(C)c1C` (stereo not drawn) [Example 1-25], for which, under setting [2], the pIC50 was at most 6.70. For `Cc1c(C(=O)NC(CCC2CC2)C(=O)NCc2ccc(CN(C)C)cc2)[nH]c2c1C(=O)CC(C)(C)C2` (stereo not drawn) [Example 1-67], the pIC50 under setting [2] was above 7.30.

On to `CSc1ccc(NC(=O)C(CCC2CC2)NC(=O)c2[nH]c3c(c2C)C(=O)CC(C)(C)C3)cn1` (stereo not drawn) [Example 1-72], for which the pIC50 under setting [2] is at most 6.70. Consider `CCCCC(NC(=O)c1[nH]c2c(c1C)C(=O)CC(C)(C)C2)C(=O)Nc1ccccc1CN(C)C` (stereo not drawn) [Example 5-3], for which the pIC50 under setting [1] was at most 6.70. As for `CCCC[C@H](NC(=O)c1[nH]c2c(c1C(C)C)C(=O)CC(C)(C)C2)C(=O)Nc1ccccc1` [Example 6-36], the pIC50 under setting [1] is 6.70 to 7.30.

With `Cc1c(C(=O)NC(CCC2CC2)C(=O)N2CCc3cc(OCCN(C)C)ccc3C2)[nH]c2c1C(=O)CC(C)(C)C2` (stereo not drawn) [Example 1-140], under setting [1], the pIC50 is at most 6.70. Turning to `CCCCC(NC(=O)c1[nH]c2c(c1C)C(=O)CC(C)(C)C2)C(=O)Nc1ccc(N2CCNCC2)nc1` (stereo not drawn) [Example 26-5], the pIC50 under setting [1] was 6.70 to 7.30.

Regarding `CCCCC(NC(=O)c1[nH]c2c(c1C)C(=O)CC(C)(C)C2)C(=O)Nc1ccccc1OC` (stereo not drawn) [Example 1-11], under setting [2], the negative-log IC50 (pIC50) is at most 6.70. `CCCCC(NC(=O)c1[nH]c2c(c1C)C(=O)CC(C)(C)C2)C(=O)Nc1ccc(CN(C)C)cc1` (stereo not drawn) [Example 18-3]: the pIC50 under setting [1] was above 7.30. `Cc1c(C(=O)NC(CCC2CC2)C(=O)N2CCc3cc(O)ccc32)[nH]c2c1C(=O)CC(C)(C)C2` (stereo not drawn) [Example 1-132]: under setting [1], the pIC50 was at most 6.70. `CCCCC(NC(=O)c1[nH]c2c(c1C)C(=O)CC(C)(C)C2)C(=O)Nc1cc(OC)c(OC)c(OC)c1` (stereo not drawn) [Example 1-109]: under setting [2], the pIC50 is at most 6.70.

On to `Cc1c(C(=O)NC(CCC2CC2)C(=O)N2CCc3cc(Br)ccc32)[nH]c2c1C(=O)CC(C)(C)C2` (stereo not drawn) [Example 1-76], for which the pIC50 under setting [2] is at most 6.70.

Consider `COc1ccc(NC(=O)C(CCC2CC2)NC(=O)c2ccc(C3CCNCC3)cc2)cn1` (stereo not drawn) [Example 28, N-[4-cyclopropyl-1-[(6-methoxypyridine-3-yl)amino]-1-oxobutan-2-yl]-4-piperidin-4-ylbenzamide], for which the pIC50 under setting [1] was above 7.30. For `CCCCC(NC(=O)c1[nH]c2c(c1C)C(=O)CC(C)(C)C2)C(=O)Nc1ccnc2ccccc12` (stereo not drawn) [Example 9-1, 3,6,6-trimethyl-4-oxo-N-[1-oxo-1-(quinolin-4-ylamino)hexan-2-yl]-5,7-dihydro-1H-indole-2-carboxamide], under setting [1], the negative logarithm of the IC50 (pIC50) was at most 6.70. The same measure, in the same setting: next, `COc1ccc2c(c1)N(C(=O)C(CCC1CC1)NC(=O)c1[nH]c3c(c1C)C(=O)CC(C)(C)C3)CC2` (stereo not drawn) [Example 1-131]: at most 6.70; `CCN(CC)Cc1cccc2c1nc(C(CCC1CC1)NC(=O)c1[nH]c3c(c1C)C(=O)CC(C)(C)C3)n2C` (stereo not drawn) [Example 31-4]: at most 6.70.

`CCCCC(NC(=O)Cc1ccc(C)cc1)C(=O)Nc1ccc(OC2CCN(C)CC2)nc1` (stereo not drawn) [Example 11-8]: the pIC50 under setting [1] is at most 6.70. As for `CCCCC(NC(=O)c1[nH]c2c(c1C)C(=O)CC(C)(C)C2)C(=O)Nc1ccc(C)cc1OC` (stereo not drawn) [Example 1-37], the pIC50 under setting [2] was at most 6.70. Take `CCCC[C@H](NC(=O)c1[nH]c2c(c1CC)C(=O)CC(C)(C)C2)C(=O)N[C@@H](CO)c1ccccc1` [Example 6-46]: the pIC50 under setting [1] was 6.70 to 7.30.

On to `Cc1c(C(=O)NC(CCC2CC2)C(=O)N2CCc3c(OC4CCN(C)CC4)cccc32)[nH]c2c1C(=O)CC(C)(C)C2` (stereo not drawn) [Example 1-124], for which, under setting [1], the pIC50 is 6.70 to 7.30.

As to `Cc1c(C(=O)NC(CCC2CC2)C(=O)N2CCc3c(OCCCN4CCCCC4)cccc32)[nH]c2c1C(=O)CC(C)(C)C2` (stereo not drawn) [Example 1-118], the pIC50 under setting [1] is at most 6.70.

For the compound `Cc1c(C(=O)N[C@@H](CCC2CC2)C(=O)N(C)[C@@H](C)c2ccccc2)[nH]c2c1C(=O)CC(C)(C)C2` [Example 13-5], the negative-log IC50 (pIC50) under setting [1] was at most 6.70.
